Test results published in paper PMC7449411, “In silico discovery and biological validation of ligands of FAD synthase, a promising new antimicrobial target” (PLoS Computational Biology, 2020).

Assays:
S. pneumoniae = test: MIC, resazurin broth microdilution; type: cell-based, Streptococcus pneumoniae
M. tuberculosis = test: MIC, resazurin broth microdilution; type: cell-based, Mycobacterium tuberculosis; details: M. tuberculosis, media 7H9G-ADC
S. thyphimurium = test: MIC, resazurin broth microdilution; type: cell-based, Salmonella thyphimurium; details: media MH
L. monocytogenes = test: MIC, resazurin broth microdilution; type: cell-based, Listeria monocytogenes; details: media BHI
E. coli = test: MIC, resazurin broth microdilution; type: cell-based, Escherichia coli; details: media LB
S. aureus = test: MIC, resazurin broth microdilution; type: cell-based, Staphylococcus aureus; details: media MH
P. aeruginosa = test: MIC, resazurin broth microdilution; type: cell-based, Pseudomonas aeruginosa; details: media MH
M. smegmatis = test: MIC, resazurin broth microdilution; type: cell-based, Mycobacterium smegmatis; details: media 7H9G-ADC
C. glutamicum = test: MIC, resazurin broth microdilution; type: cell-based, Corynebacterium glutamicum; details: media BHI
C. diphteriae = test: MIC, resazurin broth microdilution; type: cell-based, Corynebacterium diphteriae
C. ammoniagenes = test: MIC, resazurin broth microdilution; type: cell-based, Corynebacterium ammoniagenes; details: C. ammoniagenes
FMNAT activity of CaFADS = biological target: T1, FMNAT activity of CaFADS (Corynebacterium ammoniagenes, UniProt Q59263); test: Inhibition of the FMNAT activity of CaFADS; type: biochemical; details: residual activity at 250 μM of compound, 25 °C
T1 construct: made in house; host or cells: Escherichia coli BL21(DE3)
Experimental: (§1) To determine the compound’s ability to inhibit the RFK and/or the FMNAT activities of CaFADS, both enzymatic activities were quantitatively measured in the absence and presence of the compounds following previously described protocols. Reaction mixtures contained 50 μM ATP, 5 μM RF in 20 mM PIPES, pH 7.0, 0.8 mM MgCl2, when assaying the RFK activity, and 50 μM ATP, 10 μM FMN in 20 mM PIPES, pH 7.0, 10 mM MgCl2 when measuring the FMNAT reaction. Each compound was tested at 250 μM (0.5% residual final concentration of DMSO) for each of the two enzymatic reactions. The samples were pre-incubated at 25 °C, the reaction was then initiated by the addition of ∼ 40 nM CaFADS (final concentration) and allowed for 1 min. Finally, the reaction was stopped by boiling the samples for 5 min and the denatured protein was eliminated through centrifugation. The transformation of RF into FMN and FAD (RFK activity) and of FMN into FAD (FMNAT activity) was evaluated through flavins separation by HPLC (Waters), as previously described. All the experiments were performed in triplicate. To evaluate the potency of compounds as inhibitors, we took advantage of the decrease in quantum yield of fluorescence when FMN is transformed into FAD, which allows to follow such transformation in a continuous system. Measurements were carried out using a microplate reader Synergy HT multimode plate reader (Biotek) with BRAND 96-well plates pure Grade. Reaction mixtures contained 5 μM RF or FMN, and 50 μM ATP in 20 mM PIPES, pH 7.0, 10 mM MgCl2, and the inhibitor compound in a 5-250 μM concentration range (2% residual final concentration of DMSO). Reactions were initiated through addition of 0.4 μM CaFADS, being the final reaction volume 100 μL. Flavin fluorescence (excitation at 440 nm and emission at 530 nm) was registered at 25 °C, every 50 s during 15 min. The fluorescence change per time unit (ΔF/Δt) was calculated as the slope of the resulting fluorescence decays recorded between 0 and 6 min (linear decay of the fluorescence). Controls which contained the reaction mixture without the enzyme and without any potential CaFADS inhibitory compound were included in the assay and referred as the 0% and 100% of enzymatic activity, respectively. IC50 was calculated as the concentration of compound required for a 50% inhibition of the enzymatic activity.

[1] = biological target: T2, RFK+FMNAT CaFADS activities (Corynebacterium ammoniagenes, UniProt Q59263); test: Inhibition of the RFK+FMNAT activity of CaFADS; type: biochemical; details: residual activity at 250 μM of compound, 25 °C
T2 construct: made in house; host or cells: Escherichia coli BL21(DE3)
Experimental: as §1

CaFADS = biological target: T3, CaFADS (Corynebacterium ammoniagenes, UniProt Q59263); test: Differential scanning fluorescence (thermal denaturation) binding to CaFADS; details: 2 μM CaFADS, compound up to 250 μM
T3 construct: made in house; host or cells: Escherichia coli BL21(DE3)
Experimental: Interaction of compounds with CaFADS was evaluated using fluorescence thermal denaturation, on the bases of the shifts in denaturation midpoints of thermal curves of the protein [65]. Denaturations were performed in a Stratagene Agilent Mx3005p qPCR instrument (Santa Clara, US) following SYPR Orange (ThermoFisher Scientific) emission fluorescence (excitation at 492 nm and emission at 610 nm), which greatly increases when this probe binds to protein hydrophobic regions becoming solvent exposed upon thermal unfolding. Solutions containing 2 μM CaFADS with the studied compound in an increasing 5-250 μM concentration range (2% residual final concentration of DMSO) and 5xSYPR Orange in 20 mM PIPES pH 7.0, 10 mM MgCl2, with a 100 μL total volume were dispensed into 96-well microplates (BRAND 96-well plates pure grade™). After an initial 1 min incubation at 25 °C within the equipment, unfolding curves were registered from 25 to 100 °C at 1 °C·min^−1. Control experiments with CaFADS samples with/without DMSO were routinely performed in each microplate. For those compounds shifting midpoint denaturation temperature, Tm, the dissociation constant, Kd, was predicted by fitting the data to the equation [66] ΔTm/Tm=NRTm0/ΔH0ln(1+[L]/Kd), (2) which estimates the extent of the ligand-induced protein stabilization/destabilization. ΔTm=|Tm-Tm0| with Tm0 and Tm being the midpoint denaturation temperatures in the absence and the presence of ligand, respectively, and ΔH0 the unfolding enthalpy of the protein in the absence of ligand.

T1 sequence (Q59263 whole entry): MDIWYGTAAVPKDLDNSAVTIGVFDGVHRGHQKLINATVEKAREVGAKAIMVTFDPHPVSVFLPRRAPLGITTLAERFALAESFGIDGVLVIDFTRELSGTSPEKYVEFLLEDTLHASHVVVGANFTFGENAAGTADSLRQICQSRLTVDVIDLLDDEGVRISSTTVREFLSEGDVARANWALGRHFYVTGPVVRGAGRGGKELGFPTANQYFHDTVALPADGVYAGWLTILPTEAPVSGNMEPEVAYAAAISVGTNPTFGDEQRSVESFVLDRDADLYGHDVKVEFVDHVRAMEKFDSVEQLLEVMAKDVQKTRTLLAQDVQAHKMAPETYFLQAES
T2 sequence (Q59263 whole entry): as above
T3 sequence (Q59263 whole entry): as above

Row | Structure (SMILES) | MIC (S. pneumoniae; media BHI) [µM] | MIC (S. pneumoniae; media MH) [µM] | MIC (M. tuberculosis) [µM] | MIC (S. thyphimurium) [µM] | MIC (L. monocytogenes) [µM] | MIC (E. coli) [µM] | MIC (S. aureus) [µM] | MIC (P. aeruginosa) [µM] | MIC (M. smegmatis) [µM] | MIC (C. glutamicum) [µM] | MIC (C. diphteriae; media BHI) [µM] | MIC (C. diphteriae; media MH) [µM] | MIC (C. ammoniagenes; media BHI) [µM] | MIC (C. ammoniagenes; media MH) [µM] | MIC (C. ammoniagenes; media MH+DFO) [µM] | MIC (C. ammoniagenes; media MH+DIP) [µM] | MIC (C. ammoniagenes; media MH+DIP+DFO) [µM] | FMNAT % Res. act. 250 μM (FMNAT activity of CaFADS) [%] | RFK+FMNAT % Res. act. 250 μM [1] [%] | Tm shift of CaFADS thermal denaturation (CaFADS)
1 | O=C(O)CC(CC(=O)Nc1ccc2ccccc2n1)c1ccccc1 (stereo not shown) [Compound C4, 5-oxo-3-phenyl-5-(2-quinolinylamino)pentanoic acid] | > 256 | > 256 | > 256 | > 256 | > 64 | > 64 | > 256 | > 256 | > 256 | > 64 | > 64 | > 256 | > 64 | > 256 | > 256 | > 256 | > 256 |  |  | 
2 | Cc1c(N=CN(C(=O)c2ccccc2)c2cccc([N+](=O)[O-])c2C)cccc1[N+](=O)[O-] [Compound C7, N1-(2-methyl-3-nitrophenyl)-N1-{[(2-methyl-3-nitrophenyl)imino]methyl}benzamide] |  |  | > 256 | > 256 | > 256 | > 256 | > 256 | > 256 |  | > 256 |  | > 256 |  | > 256 | > 256 | > 256 | > 256 | >95 | 82 ± 7 | 
3 | CC1=C(C)CC(C(=O)Nc2ccc(Oc3ccc(Cl)cc3)cc2)C(C(=O)O)C1 (stereo not shown) [Compound C12, 6-{[4-(4-chlorophenoxy)anilino]carbonyl}-3,4-dimethylcyclohex-3-ene-1-carboxylic acid] |  |  | > 256 | > 256 | > 256 | > 256 | > 256 | > 256 |  | > 256 |  | > 256 |  | > 256 | > 256 | > 256 | > 256 |  |  | neither binder nor inhibitor
4 | COc1ccc(NC(=O)CC(CC(=O)O)c2cc(OC)c(OC)c(OC)c2)cc1 (stereo not shown) [Compound C11, 5-(4-methoxyanilino)-5-oxo-3-(3,4,5-trimethoxyphenyl)pentanoic acid] | > 256 | > 256 | > 256 | > 256 | > 64 | > 64 | > 256 | > 256 | > 256 | > 64 | > 64 | > 256 | > 64 | > 256 | > 256 | > 256 | > 256 |  |  | 
5 | N#Cc1ccc(C=NNC(=O)c2cnn(-c3ccc([N+](=O)[O-])cc3)c2C(F)(F)F)cc1 [Compound C10, N'-[(4-cyanophenyl)methylene]-1-(4-nitrophenyl)-5-(trifluoromethyl)-1H-pyrazole-4-carbohydrazide] | > 256 | > 256 | > 256 | > 256 | > 64 | > 64 | > 256 | > 256 | > 256 | > 64 | > 64 | > 256 | > 64 | > 256 | > 256 | > 256 | > 256 |  |  | 
6 | Cc1ccc(OCC2SCCN2C(=O)c2c(-c3c(Cl)cccc3Cl)noc2C)c([N+](=O)[O-])c1 (stereo not shown) [Compound C25, [3-(2,6-dichlorophenyl)-5-methylisoxazol-4-yl]{2-[(4-methyl-2-nitrophenoxy)methyl]-1,3-thiazolan-3-yl}methanone] |  |  | > 256 | > 256 | > 256 | > 256 | > 256 | > 256 |  | > 256 |  | > 256 |  | > 256 | > 256 | > 256 | > 256 |  |  | 
7 | O=C(O)C(=Cc1ccc2c(c1)OCO2)NC(=O)c1ccccc1 [Compound C14, 3-(1,3-benzodioxol-5-yl)-2-(benzoylamino)acrylic acid] | > 256 | > 256 | > 256 | > 256 | > 64 | > 64 | > 256 | > 256 | > 256 | > 64 | > 64 | > 256 | > 64 | > 256 | > 256 | > 256 | > 256 |  |  | 
8 | N#CC(=Cc1cccc([N+](=O)[O-])c1)c1nn(-c2ccccc2)c(-n2cccc2)c1C#N [Compound C8, 3-[1-cyano-2-(3-nitrophenyl)vinyl]-1-phenyl-5-(1H-pyrrol-1-yl)-1H-pyrazole-4-carbonitrile] | > 256 | > 256 | > 256 | > 256 | > 64 | > 64 | > 256 | > 256 | > 256 | > 64 | > 64 | > 256 | > 64 | > 256 | > 256 | > 256 | > 256 |  |  | 
9 | NS(=O)(=O)c1ccc(NC(=O)CC(CC(=O)O)c2ccccc2)cc1 (stereo not shown) [Compound C17, 5-[4-(aminosulfonyl)anilino]-5-oxo-3-phenylpentanoic acid] |  |  | > 256 | > 256 | > 256 | > 256 | > 256 | > 256 |  | > 256 |  | > 256 |  | > 256 | > 256 | > 256 | > 256 |  |  | 
